Test results as given in ChEMBL document CHEMBL1201862, “PubChem BioAssay data set” (2004).
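A five-concentration, 48-hour dose response in 96-well plates underlies each endpoint, interpolated linearly between surrounding concentrations. GI50: concentration for 50% inhibition of growth.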 Activity calls are given as the source filed them. Cut-off read from the data, not from the text of the source: active = GI50 up to about 1.1 µM and inactive = higher.

Assays:
Test in all cases: NCI anticancer screen, dose series, 48 h
UO-31 = tested on: UO-31
RXF 393 = tested on: RXF 393
HOP-62 = tested on: HOP-62
NCI-H460 = tested on: NCI-H460
OVCAR-8 = tested on: OVCAR-8
SK-MEL-2 = tested on: SK-MEL-2
TK-10 = tested on: TK-10
Malme-3M = tested on: Malme-3M
Hs-578T = tested on: Hs-578T
HCT-15 = tested on: HCT-15
K562 = tested on: K562
MOLT-4 = tested on: MOLT-4
IGROV-1 = tested on: IGROV-1
SF-268 = tested on: SF-268
CAKI-1 = tested on: CAKI-1
PC-3 = tested on: PC-3
T47D = tested on: T47D
NCI-H522 = tested on: NCI-H522
KM12 = tested on: KM12
U-251 = tested on: U-251
RPMI-8226 = tested on: RPMI-8226
SK-MEL-5 = tested on: SK-MEL-5
LOX IMVI = tested on: LOX IMVI
SR = tested on: SR
SNB-75 = tested on: SNB-75
MDA-N = tested on: MDA-N
EKVX = tested on: EKVX
MDA-MB-231 = tested on: MDA-MB-231
OVCAR-4 = tested on: OVCAR-4
SW-620 = tested on: SW-620
UACC-62 = tested on: UACC-62
ACHN = tested on: ACHN
SK-MEL-28 = tested on: SK-MEL-28
A498 = tested on: A498
SK-OV-3 = tested on: SK-OV-3
NCI/ADR-RES = tested on: NCI/ADR-RES
HOP-92 = tested on: HOP-92
SN12C = tested on: SN12C
SNB-19 = tested on: SNB-19
NCI-H226 = tested on: NCI-H226
SF-539 = tested on: SF-539
HCT-116 = tested on: HCT-116
CCRF-CEM = tested on: CCRF-CEM
HCC 2998 = tested on: HCC 2998
HL-60 = tested on: HL-60
UACC-257 = tested on: UACC-257
786-0 = tested on: 786-0
A549 = tested on: A549
HT-29 = tested on: HT-29
COLO 205 = tested on: COLO 205
SF-295 = tested on: SF-295
NCI-H23 = tested on: NCI-H23
OVCAR-5 = tested on: OVCAR-5
MDA-MB-435 = tested on: MDA-MB-435
DU-145 = tested on: DU-145
OVCAR-3 = tested on: OVCAR-3
M14 = tested on: M14
MCF7 = tested on: MCF7

Structure (SMILES): N=C(N)N/N=C\c1c(-c2ccccc2)nc2sccn12
- GI50 (UO-31): 17.8 µM (inactive)
- GI50 (RXF 393): 13.4 µM (inactive)
- GI50 (HOP-62): 15.7 µM (inactive)
- GI50 (NCI-H460): 16.2 µM (inactive)
- GI50 (OVCAR-8): 16.5 µM (inactive)
- GI50 (SK-MEL-2): 15.1 µM (inactive)
- GI50 (TK-10): 17.4 µM (inactive)
- GI50 (Malme-3M): 16.3 µM (inactive)
- GI50 (Hs-578T): 14 µM (inactive)
- GI50 (HCT-15): 15.7 µM
- GI50 (K562): 17.3 µM (inactive)
- GI50 (MOLT-4): 18.5 µM (inactive)
- GI50 (IGROV-1): 13.6 µM (inactive)
- GI50 (SF-268): 16.4 µM (inactive)
- GI50 (CAKI-1): 16 µM (inactive)
- GI50 (PC-3): 15.1 µM (inactive)
- GI50 (T47D): 14.3 µM (inactive)
- GI50 (NCI-H522): 12.1 µM (inactive)
- GI50 (KM12): 14.2 µM (inactive)
- GI50 (U-251): 15.2 µM (inactive)
- GI50 (RPMI-8226): 20 µM (inactive)
- GI50 (SK-MEL-5): 15.6 µM (inactive)
- GI50 (LOX IMVI): 16.3 µM (inactive)
- GI50 (SR): 22.4 µM (inactive)
- GI50 (SNB-75): 12.2 µM (inactive)
- GI50 (MDA-N): 14.1 µM (inactive)
- GI50 (EKVX): 14.5 µM (inactive)
- GI50 (MDA-MB-231): 12.7 µM (inactive)
- GI50 (OVCAR-4): 15.8 µM (inactive)
- GI50 (SW-620): 12.9 µM (inactive)
- GI50 (UACC-62): 15.9 µM (inactive)
- GI50 (ACHN): 16.9 µM (inactive)
- GI50 (SK-MEL-28): 15.7 µM (inactive)
- GI50 (A498): 19.5 µM (inactive)
- GI50 (SK-OV-3): 19 µM (inactive)
- GI50 (NCI/ADR-RES): 18.2 µM (inactive)
- GI50 (HOP-92): 14.1 µM (inactive)
- GI50 (SN12C): 15.4 µM (inactive)
- GI50 (SNB-19): 14.3 µM (inactive)
- GI50 (NCI-H226): 17.6 µM (inactive)
- GI50 (SF-539): 16.5 µM (inactive)
- GI50 (HCT-116): 15.2 µM (inactive)
- GI50 (CCRF-CEM): 21.6 µM (inactive)
- GI50 (HCC 2998): 4.54 µM (inactive)
- GI50 (HL-60): 25.8 µM (inactive)
- GI50 (UACC-257): 13.4 µM (inactive)
- GI50 (786-0): 14.1 µM (inactive)
- GI50 (A549): 17.5 µM (inactive)
- GI50 (HT-29): 15.3 µM (inactive)
- GI50 (COLO 205): 12 µM (inactive)
- GI50 (SF-295): 14.7 µM (inactive)
- GI50 (NCI-H23): 12.5 µM (inactive)
- GI50 (OVCAR-5): 16.9 µM (inactive)
- GI50 (MDA-MB-435): 15.6 µM (inactive)
- GI50 (DU-145): 19 µM (inactive)

Structure (SMILES): COc1cccc(C2c3cc4c(cc3OC(N3CCCC3)C2C)OCO4)c1 (configuration not stated)
- GI50 (UO-31): 12.1 µM (inactive)
- GI50 (HOP-62): 4.63 µM (inactive)
- GI50 (OVCAR-8): 18.7 µM (inactive)
- GI50 (SK-MEL-2): 5.48 µM (inactive)
- GI50 (TK-10): 18.6 µM (inactive)
- GI50 (Hs-578T): 8.3 µM (inactive)
- GI50 (HCT-15): 4.68 µM
- GI50 (K562): 2.69 µM (inactive)
- GI50 (IGROV-1): 6.32 µM (inactive)
- GI50 (SF-268): 14.7 µM (inactive)
- GI50 (CAKI-1): 2.12 µM (inactive)
- GI50 (PC-3): 11 µM (inactive)
- GI50 (T47D): 5.16 µM (inactive)
- GI50 (NCI-H522): 3.92 µM (inactive)
- GI50 (KM12): 6.01 µM (inactive)
- GI50 (RPMI-8226): 4.85 µM (inactive)
- GI50 (SK-MEL-5): 5.53 µM (inactive)
- GI50 (LOX IMVI): 5.71 µM (inactive)
- GI50 (SR): 3.82 µM (inactive)
- GI50 (SNB-75): 4.99 µM (inactive)
- GI50 (MDA-N): 1.79 µM (inactive)
- GI50 (EKVX): 21.3 µM (inactive)
- GI50 (SW-620): 4.55 µM (inactive)
- GI50 (UACC-62): 4.66 µM (inactive)
- GI50 (ACHN): 8.79 µM (inactive)
- GI50 (SK-MEL-28): 8.79 µM (inactive)
- GI50 (NCI/ADR-RES): 4.53 µM (inactive)
- GI50 (HOP-92): 2.83 µM (inactive)
- GI50 (SN12C): 20.9 µM (inactive)
- GI50 (SNB-19): 11.4 µM (inactive)
- GI50 (SF-539): 8.69 µM (inactive)
- GI50 (HCT-116): 4.76 µM (inactive)
- GI50 (CCRF-CEM): 0.513 µM (active)
- GI50 (HCC 2998): 11.9 µM (inactive)
- GI50 (OVCAR-3): 7.48 µM (inactive)
- GI50 (UACC-257): 12.1 µM (inactive)
- GI50 (786-0): 9.62 µM (inactive)
- GI50 (A549): 9.2 µM (inactive)
- GI50 (HT-29): 4.58 µM (inactive)
- GI50 (M14): 3.96 µM (inactive)
- GI50 (MCF7): 5.85 µM (inactive)
- GI50 (COLO 205): 9.77 µM (inactive)
- GI50 (SF-295): 3.04 µM (inactive)
- GI50 (NCI-H23): 22.8 µM (inactive)
- GI50 (OVCAR-5): 24.9 µM (inactive)
- GI50 (MDA-MB-435): 2.7 µM (inactive)
- GI50 (DU-145): 16.3 µM (inactive)
